Assay results reported in patent US9469650B2, “Melampomagnolide B derivatives” (BOARD OF TRUSTEES OF THE UNIVERSITY OF ARKANSAS, priority 2013, dated 2016).

What was measured:
K-562 = test: panel of 60 human tumor cell lines, growth inhibition (Leukemia)
LOX IMVI = test: panel of 60 human tumor cell lines, growth inhibition (Melanoma); details: Homo sapiens
SK-MEL-2 = test: as above; details: Homo sapiens
SK-MEL-28 = test: as above; details: Homo sapiens
SK-MEL-5 = test: as above; details: Homo sapiens
UACC-257 = test: as above
SF-295 = test: panel of 60 human tumor cell lines, growth inhibition (CNS Cancer); details: Homo sapiens
U251 = test: as above; details: Homo sapiens
RXF 393 = test: panel of 60 human tumor cell lines, growth inhibition (Renal Cancer); details: Homo sapiens
BT-549 = test: panel of 60 human tumor cell lines, growth inhibition (Breast Cancer); details: Homo sapiens
OVCAR-3 = test: panel of 60 human tumor cell lines, growth inhibition (Ovarian Cancer)
OVCAR-5 = test: as above; details: Homo sapiens
OVCAR-8 = test: as above; details: Homo sapiens
SK-OV-3 = test: as above; details: Homo sapiens
DU-145 = test: panel of 60 human tumor cell lines, growth inhibition (Prostate Cancer); details: Homo sapiens
A549/ATCC = test: panel of 60 human tumor cell lines, growth inhibition (Non-Small Cell Lung Cancer); details: Homo sapiens, A549, read-out: LC50
HOP-62 = test: as above; details: Homo sapiens
NCI-H322M = test: as above; details: Homo sapiens

**Q.** What does the source list for C=C1C(=O)O[C@H]2[C@H]1CC/C(COC(=O)OCCCN1CCCCC1)=C\CC[C@@]1(C)O[C@@H]21 [JVM 2-26]?
**A.** GI50 (K-562; Homo sapiens, K562): 3.27 µM; CC50 (K-562; Homo sapiens, K562, read-out: LC50): > 100 µM; TGI (K-562; K-562): 1.52E−5; Percent Growth (K-562; K-562, Log10 Concentration −4.0): −42%; Percent Growth (K-562; K-562, Log10 Concentration −5.0): 9%; Percent Growth (K-562; K-562, Log10 Concentration −6.0): 93%; Percent Growth (K-562; K-562, Log10 Concentration −7.0): 96. %; Percent Growth (K-562; K-562, Log10 Concentration −8.0): 100%; GI50 (LOX IMVI): 3.15 µM; CC50 (LOX IMVI; read-out: LC50): 37.8 µM; IC (TGI) (LOX IMVI; read-out: TGI): 11.7 µM; GI50 (SK-MEL-2; SK-MEL-2): 11.2 µM; CC50 (SK-MEL-2; SK-MEL-2, read-out: LC50): 55.8 µM; IC (TGI) (SK-MEL-2; SK-MEL-2, read-out: TGI): 25.1 µM; GI50 (SK-MEL-28; SK-MEL-28): 3.83 µM; CC50 (SK-MEL-28; SK-MEL-28, read-out: LC50): 41 µM; IC (TGI) (SK-MEL-28; SK-MEL-28, read-out: TGI): 15.5 µM; GI50 (SK-MEL-5; SK-MEL-5): 10.6 µM; CC50 (SK-MEL-5; SK-MEL-5, read-out: LC50): 47.6 µM; IC (TGI) (SK-MEL-5; SK-MEL-5, read-out: TGI): 22.5 µM; GI50 (UACC-257; Homo sapiens, UACC-257): 5.34 µM; CC50 (UACC-257; Homo sapiens, UACC-257, read-out: LC50): 45.6 µM; TGI (UACC-257; UACC-257): 1.87E−5; Percent Growth (UACC-257; UACC-257, Log10 Concentration −4.0): −94%; Percent Growth (UACC-257; UACC-257, Log10 Concentration −5.0): 35%; Percent Growth (UACC-257; UACC-257, Log10 Concentration −6.0): 90%; Percent Growth (UACC-257; UACC-257, Log10 Concentration −7.0): 67%; Percent Growth (UACC-257; UACC-257, Log10 Concentration −8.0): 91%; GI50 (SF-295; SF-295): 15.4 µM; CC50 (SF-295; SF-295, read-out: LC50): 73.2 µM; IC (TGI) (SF-295; SF-295, read-out: TGI): 33.5 µM; GI50 (U251; U-251): 16.7 µM; CC50 (U251; U-251, read-out: LC50): 62.7 µM; IC (TGI) (U251; U-251, read-out: TGI): 32.4 µM; GI50 (RXF 393; RXF 393, RXF 393): 2.35 µM; CC50 (RXF 393; RXF 393, read-out: LC50): 34 µM; IC (TGI) (RXF 393; RXF 393, read-out: TGI): 8.65 µM; GI50 (BT-549; BT-549): 3.12 µM; CC50 (BT-549; BT-549, read-out: LC50): 38.7 µM; IC (TGI) (BT-549; BT-549, read-out: TGI): 15 µM; GI50 (OVCAR-3; Homo sapiens, OVCAR-3): 1.96 µM; CC50 (OVCAR-3; Homo sapiens, OVCAR-3, read-out: LC50): 22 µM; IC (TGI) (OVCAR-3; Homo sapiens, OVCAR-3, read-out: TGI): 5.88 µM; Percent Growth (OVCAR-3; OVCAR-3, Log10 Concentration −4.0): −100%; Percent Growth (OVCAR-3; OVCAR-3, Log10 Concentration −5.0): −24%; Percent Growth (OVCAR-3; OVCAR-3, Log10 Concentration −6.0): 80%; Percent Growth (OVCAR-3; OVCAR-3, Log10 Concentration −7.0): 96%; Percent Growth (OVCAR-3; OVCAR-3, Log10 Concentration −8.0): 98%; GI50 (OVCAR-5; OVCAR-5): 10.1 µM; CC50 (OVCAR-5; OVCAR-5, read-out: LC50): 50.9 µM; IC (TGI) (OVCAR-5; OVCAR-5, read-out: TGI): 22.7 µM; GI50 (OVCAR-8; OVCAR-8): 10.3 µM; CC50 (OVCAR-8; OVCAR-8, read-out: LC50): 53.3 µM; IC (TGI) (OVCAR-8; OVCAR-8, read-out: TGI): 13.5 µM; GI50 (SK-OV-3; SK-OV-3): 21 µM; CC50 (SK-OV-3; SK-OV-3, read-out: LC50): > 100 µM; IC (TGI) (SK-OV-3; SK-OV-3, read-out: TGI): 53.7 µM; GI50 (DU-145; DU-145): 3.19 µM; CC50 (DU-145; DU-145, read-out: LC50): 35.3 µM; IC (TGI) (DU-145; DU-145, read-out: TGI): 12.5 µM; CC50 (A549/ATCC): 67.2 µM; GI50 (HOP-62; HOP-62): 15.3 µM; CC50 (HOP-62; HOP-62, read-out: LC50): 57.7 µM; IC (TGI) (HOP-62; HOP-62, read-out: TGI): 19.8 µM; GI50 (NCI-H322M): 17.2 µM; CC50 (NCI-H322M; read-out: LC50): > 100 µM; IC (TGI) (NCI-H322M; read-out: TGI): 54.4 µM
